Values joined by “and” are separate entries in the source; they are usually repeats but may differ in a detail not shown here. Identical values can stand only once.
What was measured:
[1] = ABTS radical assay; conditions: triplicate; for IC50: log-dose inhibition curve, read-out: Scavenging activity of compounds on ABTS radical, SC50
Experimental: The ABTS radical cation assay was modified the method of Re et al.[15] Briefly, the mixture of 7.4 mM ABTS solution with 2.6 mM potassium persulfate incubated at room temperature in dark for 24 h. […] Fifty microliter of the inhibitor was reacted with 950 μL of the ABTS solution. Absorbance value was monitored during 10 min at 732 nm using a spectrophotometer. The free radical value (SC50) was calculated by the log-dose inhibition curve. Scavenging activity (%)=[1–(extract absorbance/control absorbance)]×100.

[2] = target: T1, tyrosinase (Agaricus bisporus, UniProt C7FF04); experiment: Tyrosinase enzyme kinetics (Lineweaver-Burk plots, secondary re-plot); assay type: biochemical; conditions: 0.62-10 mM L-tyrosine
Experimental: Enzyme assay was performed according to the modified methods in the previous papers. For the calculation of inhibitory activity, 130 μL of tyrosinase (about 46 units/mL) solvated in 0.1 mM phosphate buffer (pH: 6.8) and 20 μL of 1–0.0078 mM concentrations of the inhibitors were mixed in a 96-well plate, and then 50 μL of 2 mM L-tyrosine in buffer was added in mixture. To test the enzyme kinetic study, 130 μL of tyrosinase and 20 μL of inhibitor were also mixed, and then 50 μL of 0.62–10 mM L-tyrosine was added in a 96-well plate. The mixture was recorded at UV-Vis 475 nm during 20 min. The inhibitory ratio was calculated according to the following equation: Inhibitory activity rate (%)=100–[(S20–S0/C20–C0]×100 where C20 and S20 are the intensity of control and inhibitor after 20 min, C0 and S0 are the intensity of control and inhibitor at 0 min.
This study confirmed the inhibitory mechanism of compounds 1–4 towards tyrosinase using enzyme kinetics. Enzyme kinetics were performed based on academic methods that examine a variety of substrate concentrations. The results were represented by Lineweaver–Burk plots, which confirmed the inhibition to […]. […]
Target sequence in this assay (C7FF04 2-392): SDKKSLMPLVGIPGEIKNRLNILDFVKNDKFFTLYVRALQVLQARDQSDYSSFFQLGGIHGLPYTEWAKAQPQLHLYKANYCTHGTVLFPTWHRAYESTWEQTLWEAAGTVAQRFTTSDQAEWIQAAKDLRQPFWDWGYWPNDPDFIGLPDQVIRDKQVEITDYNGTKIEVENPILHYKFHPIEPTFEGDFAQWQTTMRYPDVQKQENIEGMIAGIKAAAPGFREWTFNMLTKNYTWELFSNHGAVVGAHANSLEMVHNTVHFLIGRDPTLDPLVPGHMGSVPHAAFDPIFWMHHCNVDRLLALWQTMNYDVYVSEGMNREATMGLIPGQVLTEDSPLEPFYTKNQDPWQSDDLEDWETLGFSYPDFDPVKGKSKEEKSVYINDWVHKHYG

[3] = target: T1, tyrosinase; experiment: Tyrosinase assay (conversion of L-tyrosine to L-DOPA, UV-Vis 475 nm); assay type: biochemical; design: purchased Sigma-Aldrich T3824; conditions: L-tyrosine substrate, triplicate; for inhibition at 100 µM: 100 μM inhibitor, read-out: Inhibitory activity of compounds on tyrosinase, 100 μM (%); for IC50: read-out: Inhibitory activity of compounds on tyrosinase, IC50
Experimental: Enzyme assay was performed according to the modified methods in the previous papers. For the calculation of inhibitory activity, 130 μL of tyrosinase (about 46 units/mL) solvated in 0.1 mM phosphate buffer (pH: 6.8) and 20 μL of 1–0.0078 mM concentrations of the inhibitors were mixed in a 96-well plate, and then 50 μL of 2 mM L-tyrosine in buffer was added in mixture. To test the enzyme kinetic study, 130 μL of tyrosinase and 20 μL of inhibitor were also mixed, and then 50 μL of 0.62–10 mM L-tyrosine was added in a 96-well plate.
Target sequence in this assay (C7FF04 1-392 limits assumed): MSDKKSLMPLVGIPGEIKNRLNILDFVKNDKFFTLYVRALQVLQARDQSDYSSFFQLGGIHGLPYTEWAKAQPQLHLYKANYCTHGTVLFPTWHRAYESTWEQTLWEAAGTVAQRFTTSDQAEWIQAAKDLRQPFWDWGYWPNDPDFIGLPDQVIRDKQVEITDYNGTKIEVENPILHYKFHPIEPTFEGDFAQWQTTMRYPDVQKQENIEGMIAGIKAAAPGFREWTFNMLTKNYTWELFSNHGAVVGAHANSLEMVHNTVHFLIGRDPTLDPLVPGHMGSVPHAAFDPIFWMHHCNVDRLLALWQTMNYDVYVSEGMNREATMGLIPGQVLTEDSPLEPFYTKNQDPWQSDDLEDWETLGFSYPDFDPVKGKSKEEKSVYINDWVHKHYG

[4] = test system: HepG2 cells; experiment: Measurement of intracellular ROS in H2O2-treated HepG2 cells; assay type: cell-based, Human; conditions: 10 μM inhibitor 1 h, then 2 mM H2O2 30 min; negative control 100.0%, positive control 701.5%
Experimental: Human hepatoma HepG2 cells were cultured in DMEM supplemented with 10% FBS, 100 units/mL of penicillin and 100 μg/mL of streptomycin. Cells were maintained incubation at 37 °C under a 5% CO2[16].
The concentration of intracellular ROS was measured using a carboxy-H2DCFDA probe, as previously described. HepG2 cells were seeded into six-well plates at a density of 1 × 10^5 cells/mL and incubated for 24 h. After treatment with 10 μM concentrations of inhibitors 1–5 for 1 h, H2O2 (2 mM) was added to plates for 30 min. Cells were then incubated with 10 μM carboxy-H2DCFDA for 20 min, then cells were washed and harvested. Cells were immediately examined using a flow cytometer (Cytomics FC500; Beckman, Miami, FL).
To examine their antioxidant activity in vitro, pure compounds 1–5 were added to HepG2 cells, followed by addition of 2 mM H2O2. As shown in Figure 5(A), the respective negative (H2O2: –; I: –) and positive (H2O2: +; I: –) controls generated reactive oxygen species (ROS) of 100.0% ± 9.1% and 701.5% ± 46.9%. […] The viability of HepG2 cells following treatment with all compounds 1–5 at 10 μM ranged from 100.1% ± 6.1% to 103.8% ± 5.1% (Figure S6). Compound 2 caused an […].

[5] = target: tyrosinase; design: method as in PMID 12951485, PMID 18175961; conditions: read-out: IC50 on tyrosinase (previous report); cited from earlier work

Row | IC50 [1] [µM] | Binding mode [2] | inhibition at 100 µM [3] [%] | IC50 [3] | Structure (SMILES) | Scavenging activity of compounds on ABTS radical, 25 μM (%) [1] [%] | ROS generation [4] | IC50 [5] [µM]
1 | 27.8 ± 0.5 |  |  |  | O=C1O[C@H]([C@@H](O)CO)C(O)=C1O [Ascorbic acid, reference compound] | 44.9 ± 0.9 |  | 
2 | 9.7 ± 0.1 | non-competitive inhibitors | 101 ± 3.3 | < 10 µM and 1.1 µM | C=C(C)[C@H](CC=C(C)C)Cc1c(O)cc(O)c2c1O[C@H](c1ccccc1O)CC2=O [Compound 1, kushenol A] | 93.7 ± 0.3 |  | 
3 | 7.9 ± 0.3 | competitive inhibitor | 90.4 ± 3 | < 10 µM and 2.4 µM | CC(C)=CCc1c(O)cc(O)c2c(=O)c(O)c(-c3ccc(O)cc3)oc12 [Compound 2, 8-prenylkaempferol] | 93.2 ± 0.2 | 435.3% ± 43.0% | 
4 | 4.9 ± 0.3 | non-competitive inhibitors | 81.1 ± 0.1 | 24.1 ± 2.3 µM | C=C(C)C(CC=C(C)C)Cc1c(O)cc(O)c2c(=O)c(O)c(-c3ccc(O)cc3O)oc12 (stereo not shown) [Compound 3, kushenol C] | 94.1 ± 0.2 | 391.7% ± 56.3% | 
5 | 22.8 ± 1.1 | non-competitive inhibitors | 91.9 ± 2 | 19.9 ± 1.7 µM | COc1ccc(-c2coc3cc(O)ccc3c2=O)cc1 [Compound 4, formononetin] | 53.3 ± 2.4 |  | 
6 | 7 ± 0.2 |  | 27 ± 2.9 |  | CC(C)=CCc1c(O)cc(O)c2c1O[C@H](c1ccc(O)cc1)CC2=O [Compound 5, 8-prenylnaringenin] | 91.5 ± 0.1 |  | 
7 |  |  |  |  | C=C(C)[C@H](CC=C(C)C)Cc1c(O)cc(OC)c(C(=O)/C=C/c2ccc(O)cc2O)c1O [kuraridin] |  |  | 0.6
8 |  |  |  |  | C=C(C)C(CCC(C)(C)O)Cc1c(O)cc(OC)c(C(=O)/C=C/c2ccc(O)cc2O)c1O (stereo not shown) [kuraridinol] |  |  | 0.8
9 |  |  |  |  | C=C(C)[C@H](CC=C(C)C)Cc1c(O)cc(OC)c2c1O[C@H](c1ccc(O)cc1O)CC2=O [kurarinone] |  |  | 6.2
10 |  |  |  |  | C=C(C)[C@H](CC=C(C)C)Cc1c(O)cc(O)c2c1O[C@H](c1ccc(O)cc1O)CC2=O [sophoraflavanone G] |  |  | 6.6
